Results reported in patent US8273724B2, “Melanoma antigens and their use in diagnostic and therapeutic methods” (The United States of America, as represented by the …, priority 1994, dated 2012).
Blank lines part the entries; values can stand above or below the compound they belong to. Where a SMILES comes first, the peptide text is derived from it.

Tests used:
[1] = system: T2 cell lines preincubated with peptide; assay: Recognition of modified peptides by natural epitope (M9-2, G9-154, G9-209, G9-280) reactive T-cells, 51Cr release on peptide-pulsed T2 cells (Example 5); format: cell-based, human
Experimental: (§1) Assessment of antigen recognition by CTL. ^51Cr release cytotoxic assays were performed to detect the recognition of peptide and melanoma cells by CTL. To analyze peptide recognition, T2 cell lines were preincubated for 2 h at 37° C. with 1 ug/ml peptide, washed and used as target cells in a ^51Cr release cytotoxic assay. The melanoma lines 624mel was established in our laboratory (See Example 1).
In order to make more immunogenic peptides for induction of anti-melanoma T-cells than natural melanoma epitopes, a variety of peptides in which at least 1 amino acid was changed based on consensus motifs in peptides binding to a specific MHC Class I allele Falk, et al. (1991) Nature 351:290; Kubo et al. (1994) J. Immunol 152:3913; Parker, K. et al. (1992) Journal of Immunology 149:3580; Ruppert, J. et al. (1993) Cell 74:929-937) (Tables 14, 15, 16, and 17). […] By changing amino acid at the 1st, 2nd, 3rd or 9th positions which are important for HLA-A2 binding to the peptide, but less important for recognition by T-cell receptors, artificial peptides which can bind to HLA-A2.1 with higher affinity and still be recognized by natural epitope specific T-cells may be generated.

T2 cells = assay: Induction of peptide specific CTL from PBL, 51Cr release against T2 cells with or without peptide (Example 5); format: cell-based, human; conditions: E:T = 3D40:1
Experimental: (§2) Induction of peptide specific CTL PBMC were separated from peripheral blood of HLA-A2+ melanoma patients and normal donors by centrifugation on Ficoll-Hypaque gradients and used as fresh or cryopreserved samples. […] Two days later, 12 IU/ml interleukin 2 (IL-2) (Chiron Co., Emeryville, Calif.) were added to the cultures. Lymphocytes were then restimulated weekly as follows: responder cells were harvested, washed once and replated in 24-well plates at a concentration of 2.5×10^5 cells/ml in CM. Autologous PBMC were thawed, washed twice in PBS, resuspended at 5-8×10^6 cells/ml in CM and pulsed with 1 ug/ml peptide in 15-ml conical tubes (5 ml/tube) for 3 hours at 37° C. These PBMC (stimulators) were then irradiated at 3000 rads, washed once in PBS and added to the responder cells at responder:stimulator ratios ranging between 1:3 and 1:10. The next day, 12 IU/ml IL-2 were added to the cultures. The activity of these CTL was tested by cytotoxicity assays after at least 2 rounds (14 days) of peptide stimulation. To generate CTL from TIL cultures, the dissociated tumor suspension were cultured for 1-2 days in 10% FCS RPMI-1640 medium to allow tumor cell adherence. The lymphocytes, recovered from the non-adherent fraction, were used for the induction of peptide specific CTL as described above.
as §1

[2] = system: 624mel melanoma cell line; assay: Induction of peptide specific CTL from PBL, 51Cr release against melanoma cells (Example 5); format: cell-based, human; conditions: for % specific lysis by PBL stimulated with the peptide: target 624mel, E:T = 3D40:1; for recognition and lysis of original epitopes and melanoma tumor cells (624 mel) by PBL stimulated with the peptide, compared with natural epitopes: PBL stimulated with autologous PBMC pulsed with peptide
Experimental: as §2, §1

HLA-A2.1 = HLA-A2.1 (Homo sapiens, UniProt P04439, D140Y/D185E/D98H/E176V/E277Q/G131W/G231S/I119V/I121R/I166T/I218V/L300P/L318F/N151K/N90K/P208A/P217A/Q86G/Q94H/R138H/R169H/T345S); assay: HLA-A2.1 binding assay of modified peptides, inhibition of radiolabeled Hbc 18-27 (Example 5); conditions: for IC50: modified gp100 G9-154 peptides, read-out: Binding affinity to HLA-A2.1
HLA-A2.1+ T2 cell line = assay: 51Cr release cytotoxicity assay: TIL lysis of T2 cells preincubated with synthetic MART-1 peptides (Example 2); format: cell-based, human
[3] = target T2 + G9-154-2I, after 4 stimulations
[4] = target T2 + G9-154, after 4 stimulations
[5] = target T2, after 4 stimulations (Table 18)
[6] = after 4 stimulations (Table 18)

Compound: CC(C)[C@H](NC(=O)[C@H](CCC(N)=O)NC(=O)[C@H](Cc1c[nH]c2ccccc12)NC(=O)[C@H](Cc1ccc(O)cc1)NC(=O)[C@H](CCC(N)=O)NC(=O)CNC(=O)[C@H](Cc1c[nH]c2ccccc12)NC(=O)[C@@H](NC(=O)[C@@H](N)CCCCN)[C@@H](C)O)C(=O)O [G9154]
Recognition by G9-154 reactive T-cell [1]: + (+, recognized)
% specific lysis by PBL stimulated with the peptide (T2 cells; [3]): 8%
% specific lysis by PBL stimulated with the peptide (T2 cells; [4]): 14%
% specific lysis by PBL stimulated with the peptide (T2 cells; [5]): 11%
% specific lysis by PBL stimulated with the peptide [2, 6]: 5%

Compound: CC[C@H](C)[C@H](NC(=O)CN)C(=O)NCC(=O)N[C@H](C(=O)N[C@@H](CC(C)C)C(=O)N[C@H](C(=O)N[C@H](C(=O)N[C@H](C(=O)N[C@@H](CC(C)C)C(=O)O)[C@@H](C)CC)C(C)C)[C@@H](C)O)[C@@H](C)CC [M9-3] (H-GIGILTVIL-OH)
% specific lysis (HLA-A2.1+ T2 cell line; T2 + peptide 10 ug/ml, effector TIL 660, E:T 40:1, 4 h): 0%
% specific lysis (HLA-A2.1+ T2 cell line; T2 + peptide 10 ug/ml, effector TIL 1074, E:T 40:1, 4 h): 10%
% specific lysis (HLA-A2.1+ T2 cell line; T2 + peptide 10 ug/ml, effector TIL 1235, E:T 40:1, 4 h): 20%
% specific lysis (HLA-A2.1+ T2 cell line; T2 + peptide 10 ug/ml, effector TIL clone A42, E:T 20:1, 4 h): 18%
% specific lysis (HLA-A2.1+ T2 cell line; purified peptide 1 ug/ml, TIL 501, E:T 40:1): 5%
% specific lysis (HLA-A2.1+ T2 cell line; purified peptide 1 ug/ml, TIL 620, E:T 40:1): 25%
% specific lysis (HLA-A2.1+ T2 cell line; purified peptide 1 ug/ml, TIL 660, E:T 40:1): 0%
% specific lysis (HLA-A2.1+ T2 cell line; purified peptide 1 ug/ml, TIL 1074, E:T 40:1): 1%
% specific lysis (HLA-A2.1+ T2 cell line; purified peptide 1 ug/ml, TIL 1088, E:T 40:1): 19%
% specific lysis (HLA-A2.1+ T2 cell line; purified peptide 1 ug/ml, TIL 1128, E:T 40:1): 0%
% specific lysis (HLA-A2.1+ T2 cell line; purified peptide 1 ug/ml, TIL 1143, E:T 40:1): 1%
% specific lysis (HLA-A2.1+ T2 cell line; purified peptide 1 ug/ml, TIL 1200, E:T 40:1): −2%
% specific lysis (HLA-A2.1+ T2 cell line; purified peptide 1 ug/ml, TIL 1235, E:T 40:1): 0%
% specific lysis (HLA-A2.1+ T2 cell line; purified peptide 1 ug/ml, TIL 1363, E:T 40:1): −2%
% specific lysis (HLA-A2.1+ T2 cell line; purified peptide 1 ug/ml, clone A42, E:T 20:1): −4%
recognition by either A42 or TIL1235 (HLA-A2.1+ T2 cell line; purified peptides, titration (FIG. 2)): not recognized

Compound: CC(C)C[C@H](NC(=O)[C@@H](N)Cc1c[nH]c2ccccc12)C(=O)N[C@@H](Cc1c[nH]c2ccccc12)C(=O)NCC(=O)N[C@@H](CCC(N)=O)C(=O)N[C@@H](Cc1ccc(O)cc1)C(=O)N[C@@H](Cc1c[nH]c2ccccc12)C(=O)N[C@@H](CCC(N)=O)C(=O)N[C@H](C(=O)O)C(C)C [G9-154-1W2L] (H-WLWGQYWQV-OH; N-terminus and C-terminus assumed)
IC50 (HLA-A2.1): 2.8 nM
Recognition by G9-154 reactive T-cell [1]: −

Compound: CC(C)[C@H](NC(=O)[C@H](CCC(N)=O)NC(=O)[C@H](Cc1c[nH]c2ccccc12)NC(=O)[C@H](Cc1ccc(O)cc1)NC(=O)[C@H](CCC(N)=O)NC(=O)CNC(=O)[C@H](Cc1c[nH]c2ccccc12)NC(=O)[C@@H](NC(=O)[C@@H](N)Cc1c[nH]c2ccccc12)[C@@H](C)O)C(=O)O [G9-154-1W] (H-WTWGQYWQV-OH; N-terminus and C-terminus assumed)
IC50 (HLA-A2.1): 60 nM
Recognition by G9-154 reactive T-cell [1]: −

Compound: CC(C)C[C@H](N)C(=O)N[C@H](C(=O)N[C@@H](Cc1c[nH]c2ccccc12)C(=O)NCC(=O)N[C@@H](CCC(N)=O)C(=O)N[C@@H](Cc1ccc(O)cc1)C(=O)N[C@@H](Cc1c[nH]c2ccccc12)C(=O)N[C@@H](CCC(N)=O)C(=O)N[C@H](C(=O)O)C(C)C)[C@@H](C)O [G9-154-1L] (H-LTWGQYWQV-OH; N-terminus and C-terminus assumed)
IC50 (HLA-A2.1): 3.4 nM
Recognition by G9-154 reactive T-cell [1]: + (+, recognized)

Compound: CC(C)[C@H](NC(=O)[C@H](CCC(N)=O)NC(=O)[C@H](Cc1c[nH]c2ccccc12)NC(=O)[C@H](Cc1ccc(O)cc1)NC(=O)[C@H](CCC(N)=O)NC(=O)CNC(=O)[C@H](Cc1c[nH]c2ccccc12)NC(=O)[C@@H](NC(=O)[C@H](C)N)[C@@H](C)O)C(=O)O [G9-154-1A] (H-ATWGQYWQV-OH; N-terminus and C-terminus assumed)
IC50 (HLA-A2.1): 5.2 nM
Recognition by G9-154 reactive T-cell [1]: + (+, recognized)

Now from value to compound, other results behind:

IC50 (HLA-A2.1): 3 nM
Compound: CC[C@H](C)[C@H](NC(=O)[C@@H](N)CCCCN)C(=O)N[C@@H](Cc1c[nH]c2ccccc12)C(=O)NCC(=O)N[C@@H](CCC(N)=O)C(=O)N[C@@H](Cc1ccc(O)cc1)C(=O)N[C@@H](Cc1c[nH]c2ccccc12)C(=O)N[C@@H](CCC(N)=O)C(=O)N[C@H](C(=O)O)C(C)C [G9-154-2I] (H-KIWGQYWQV-OH; N-terminus and C-terminus assumed)
Recognition by G9-154 reactive T-cell [1]: + (+, recognized)
% specific lysis by PBL stimulated with the peptide (T2 cells; [3]): 38%
% specific lysis by PBL stimulated with the peptide (T2 cells; [4]): 37%
% specific lysis by PBL stimulated with the peptide (T2 cells; [5]): 1%
recognition and lysis of original epitopes and melanoma tumor cells (624 mel) by PBL stimulated with the peptide, compared with natural epitopes [2]: better
% specific lysis by PBL stimulated with the peptide [2, 6]: 23%

binding affinity to HLA-A2.1 compared with the natural epitope (HLA-A2.1): higher binding affinity
Compound: CC(C)C[C@H](NC(=O)[C@@H](N)Cc1ccccc1)C(=O)N[C@@H](CC(=O)O)C(=O)N[C@@H](CCC(N)=O)C(=O)N[C@H](C(=O)N1CCC[C@H]1C(=O)N[C@@H](Cc1ccccc1)C(=O)N[C@@H](CO)C(=O)N[C@H](C(=O)O)C(C)C)C(C)C [G9-209-1F2L]
Recognition by G9-209 reactive T-cell [1]: + (+, recognized)
recognition by the original melanoma reactive T-cells [1]: recognized
% specific lysis by PBL stimulated with the peptide (T2 cells; target T2 + G9-209-1F2L, after 4 stimulations): 86%
% specific lysis by PBL stimulated with the peptide (T2 cells; target T2 + G9-209, after 4 stimulations): 85%
% specific lysis by PBL stimulated with the peptide (T2 cells; target T2, after 4 stimulations (Table 19)): 0%
recognition and lysis of original epitopes and melanoma tumor cells (624 mel) by PBL stimulated with the peptide, compared with natural epitopes [2]: better
% specific lysis by PBL stimulated with the peptide ([2]; after 4 stimulations (Table 19)): 63%

IC50 (HLA-A2.1): 6.5 nM
Compound: CSCC[C@H](NC(=O)[C@@H](N)CCCCN)C(=O)N[C@@H](Cc1c[nH]c2ccccc12)C(=O)NCC(=O)N[C@@H](CCC(N)=O)C(=O)N[C@@H](Cc1ccc(O)cc1)C(=O)N[C@@H](Cc1c[nH]c2ccccc12)C(=O)N[C@@H](CCC(N)=O)C(=O)N[C@H](C(=O)O)C(C)C [G9-154-2M] (H-KMWGQYWQV-OH; N-terminus and C-terminus assumed)
Recognition by G9-154 reactive T-cell [1]: + (+, recognized)

binding affinity to HLA-A2.1 compared with the natural epitope (HLA-A2.1): higher binding affinity
Compound: CC(C)[C@H](NC(=O)[C@H](CO)NC(=O)[C@H](Cc1ccccc1)NC(=O)[C@@H]1CCCN1C(=O)[C@@H](NC(=O)[C@H](CCC(N)=O)NC(=O)[C@H](CC(=O)O)NC(=O)[C@@H](NC(=O)[C@@H](N)Cc1ccc(O)cc1)[C@@H](C)O)C(C)C)C(=O)O [G9-209-1Y]
Recognition by G9-209 reactive T-cell [1]: + (+, recognized)
recognition by the original melanoma reactive T-cells [1]: recognized

binding affinity to HLA-A2.1 compared with the natural epitope (HLA-A2.1): higher binding affinity
Compound: CC(C)[C@H](NC(=O)[C@H](CO)NC(=O)[C@H](Cc1ccccc1)NC(=O)[C@@H]1CCCN1C(=O)[C@@H](NC(=O)[C@H](CCC(N)=O)NC(=O)[C@H](CC(=O)O)NC(=O)[C@@H](NC(=O)[C@@H](N)Cc1ccccc1)[C@@H](C)O)C(C)C)C(=O)O [G9-209-1F]
Recognition by G9-209 reactive T-cell [1]: + (+, recognized)
recognition by the original melanoma reactive T-cells [1]: recognized

binding affinity to HLA-A2.1 compared with the natural epitope (HLA-A2.1): higher binding affinity
Compound: CC(C)C[C@H](NC(=O)[C@@H](N)Cc1c[nH]c2ccccc12)C(=O)N[C@@H](CC(=O)O)C(=O)N[C@@H](CCC(N)=O)C(=O)N[C@H](C(=O)N1CCC[C@H]1C(=O)N[C@@H](Cc1ccccc1)C(=O)N[C@@H](CO)C(=O)N[C@H](C(=O)O)C(C)C)C(C)C [G9-209-1W2L]
Recognition by G9-209 reactive T-cell [1]: + (+, recognized)
recognition by the original melanoma reactive T-cells [1]: recognized
